From patent publication US7858635B2 (priority 2005, dated 2010)
Where two headings read alike, the source gives them in different places.

Key:
M4 muscarinic receptor = target: T1, M4 muscarinic receptor (Homo sapiens, UniProt P08173); test: Functional mobilization of intracellular calcium (FLIPR, Fluo-3), M4-CHO cells; assay type: cell-based; conditions: for Emax: 100% efficacy is the maximum response obtained with the Carbachol control, read-out: M4 Efficacy
T1 construct: expressed in transfected cells; host or cells: CHO cells (M4-CHO, under puromycin, zeocin and blasticidin selection)
T1 sequence (P08173 1-479): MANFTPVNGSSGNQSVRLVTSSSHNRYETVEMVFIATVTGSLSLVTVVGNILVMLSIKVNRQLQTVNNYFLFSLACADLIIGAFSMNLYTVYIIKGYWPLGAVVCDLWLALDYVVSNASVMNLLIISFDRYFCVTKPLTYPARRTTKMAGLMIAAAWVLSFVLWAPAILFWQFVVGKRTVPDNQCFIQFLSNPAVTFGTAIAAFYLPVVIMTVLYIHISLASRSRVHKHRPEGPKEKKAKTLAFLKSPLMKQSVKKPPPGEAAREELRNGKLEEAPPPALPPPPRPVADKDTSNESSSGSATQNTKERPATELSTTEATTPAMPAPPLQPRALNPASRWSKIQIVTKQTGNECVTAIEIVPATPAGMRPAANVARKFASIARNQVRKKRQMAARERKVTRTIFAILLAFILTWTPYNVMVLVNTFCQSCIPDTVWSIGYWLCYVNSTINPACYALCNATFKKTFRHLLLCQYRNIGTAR
Method in brief: (§1)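 Intracellular calcium was tracked by fluorescence (488/540 nm) over 60 sec after compound addition to dye-loaded CHO cells expressing the receptor. Inhibitory activity used a 15 min pre-incubation before carbachol at the subtype EC80.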

M1 muscarinic receptor = target: T2, M1 muscarinic receptor (Homo sapiens, UniProt P11229); test: Functional mobilization of intracellular calcium (FLIPR, Fluo-3), M1-CHO cells; assay type: cell-based; conditions: for Emax: 100% efficacy is the maximum response obtained with the Carbachol control, read-out: M1 Efficacy
T2 construct: expressed in transfected cells; host or cells: CHO cells (M1-CHO, under zeocin and G418 selection)
T2 sequence (P11229 1-460): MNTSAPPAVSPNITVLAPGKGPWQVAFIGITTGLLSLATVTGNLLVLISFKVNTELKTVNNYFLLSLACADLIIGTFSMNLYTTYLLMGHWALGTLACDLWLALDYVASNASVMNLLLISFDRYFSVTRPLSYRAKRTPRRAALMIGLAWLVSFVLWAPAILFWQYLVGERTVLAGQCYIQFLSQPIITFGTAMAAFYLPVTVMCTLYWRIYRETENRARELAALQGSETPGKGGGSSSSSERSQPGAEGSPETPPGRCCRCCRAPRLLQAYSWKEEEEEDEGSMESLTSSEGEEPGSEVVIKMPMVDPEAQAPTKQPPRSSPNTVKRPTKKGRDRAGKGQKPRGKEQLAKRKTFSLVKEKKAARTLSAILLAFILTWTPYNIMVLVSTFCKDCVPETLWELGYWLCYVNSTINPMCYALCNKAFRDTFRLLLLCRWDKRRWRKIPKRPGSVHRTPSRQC
Method in brief: as §1

[1] = compound nos. 1-454, M4-CHO cells, calcium mobilization
[2] = compound nos. 1-454, M1-CHO cells, calcium mobilization

Structure (SMILES)	Emax (M4 muscarinic receptor; compound nos. 455-509)	M4 Activity (M4 muscarinic receptor; compounds 455-509)	Emax (M1 muscarinic receptor; compound nos. 455-509)	M1 Activity (M1 muscarinic receptor; compounds 455-509)	Emax (M4 muscarinic receptor; compound nos. 1-454)	M4 Activity (M4 muscarinic receptor; [1])	Emax (M1 muscarinic receptor; compound nos. 1-454)	M1 Activity (M1 muscarinic receptor; [2])	M4 Activity (M4 muscarinic receptor; compound nos. 1-454)	M1 Activity (M1 muscarinic receptor; compound nos. 1-454)
CC(=O)N1CCC2(CCN(C3CCN(c4nc(C)cs4)CC3)CC2)c2ccccc21 [compound 483]	25 to 100%	++ (activity was measured to be between 2.0 μM and 5.0 μM)	25 to 100%	++ (activity was measured to be between 2.0 μM and 5.0 μM)						
CC(=O)NC1CC2(CCN(C3CC4CCC(C4)C3)CC2)c2ccccc21 (stereo not shown) [compound 8]					55 to 70%	++ (activity was measured to be between 0.1 μM and 4.0 μM)	< 65%	++ (activity was measured to be between 0.7 μM and 3.0 μM)		
CC(=O)N1CC2(CCN(C3CCN(c4nccs4)CC3)CC2)c2ccccc21 [compound 491]	< 25%	++ (activity was measured to be between 2.0 μM and 5.0 μM)	< 25%	+ (activity was measured to be greater than or equal to 5.0 μM)						
C1=C[C@H]2C[C@H]1C[C@H]2CN1CCC2(CCc3ccccc32)CC1 [compound 313]					< 55%	+ (activity was measured to be greater than or equal to 4.0 μM)	< 65%	+ (activity was measured to be greater than or equal to 3.0 μM)		
CCOC(=O)N1CCC(N2CCC3(CC2)CN(C(C)=O)c2ccc(-c4cccc(C#N)c4)cc23)CC1 [compound 373]					> 70%	++ (activity was measured to be between 0.1 μM and 4.0 μM)	65 to 85%	+++ (activity was measured to be less than or equal to 0.7 μM)		
Cc1nsc(N2C3CCC2CC(N2CCC4(CCN(C(=O)N(C)C)c5ccccc54)CC2)C3)n1 (stereo not shown) [compound 501]	25 to 100%	++ (activity was measured to be between 2.0 μM and 5.0 μM)	> 100%	+++ (activity was measured to be less than or equal to 2.0 μM)						
CC(=O)N1CC2(CCN(CC3CCN(C(=O)OC(C)C)CC3)CC2)c2cc(C)ccc21 [compound 404]					< 55%		< 65%		+ (activity was measured to be greater than or equal to 4.0 μM)	++ (activity was measured to be between 0.7 μM and 3.0 μM)
CCOC(=O)N1CCC(CN2CCC3(CC2)CN(C(C)=O)c2ccc(Cl)cc23)CC1 [compound 256]					< 55%	++ (activity was measured to be between 0.1 μM and 4.0 μM)	< 65%	++ (activity was measured to be between 0.7 μM and 3.0 μM)		
Clc1ccc2c(c1)C1(CCN(C3CCC4CCC3C4)CC1)CN2 (stereo not shown) [compound 348]					> 70%	++ (activity was measured to be between 0.1 μM and 4.0 μM)	> 85%	+++ (activity was measured to be less than or equal to 0.7 μM)		
CCOC(=O)N1C2CCC1CC(N1CCC3(CCc4ccccc43)CC1)C2 (stereo not shown) [compound 365]					< 55%	+ (activity was measured to be greater than or equal to 4.0 μM)	65 to 85%	+++ (activity was measured to be less than or equal to 0.7 μM)		
CCc1nsc(N2C3CCC2CC(N2CCC4(CCN(C(=O)N(C)C)c5ccccc54)CC2)C3)n1 (stereo not shown) [compound 473]	25 to 100%	++ (activity was measured to be between 2.0 μM and 5.0 μM)	> 100%	+++ (activity was measured to be less than or equal to 2.0 μM)						
O=C(OC1CCCC1)N1C2CCC1CC(N1CCC3(CC1)COc1ccc(F)cc13)C2 (stereo not shown) [compound 133]					55 to 70%	++ (activity was measured to be between 0.1 μM and 4.0 μM)	> 85%	+++ (activity was measured to be less than or equal to 0.7 μM)		
O=C(OC1CCCC1)N1C2CCC1CC(N1CCC3(CC1)C(=O)Nc1ccccc13)C2 (stereo not shown) [compound 271]					< 55%	+++ (activity was measured to be less than or equal to 0.1 μM)	65 to 85%	+++ (activity was measured to be less than or equal to 0.7 μM)		
COCCOC(=O)N1CCC(N2CCC3(CC2)CN(C(C)=O)c2ccc(F)cc23)CC1 [compound 284]					< 55%	++ (activity was measured to be between 0.1 μM and 4.0 μM)	< 65%	++ (activity was measured to be between 0.7 μM and 3.0 μM)		
CCOC(=O)N[C@H]1CC2(CCN(C[C@H]3C[C@H]4CC[C@H]3C4)CC2)c2ccccc21 [compound 326]					< 55%	+ (activity was measured to be greater than or equal to 4.0 μM)	< 65%	+ (activity was measured to be greater than or equal to 3.0 μM)		
CC(=O)N1CC2(CCN(CC3CCN(C(=O)OC(C)C)CC3)CC2)c2cc(F)ccc21 [compound 202]					< 55%	+ (activity was measured to be greater than or equal to 4.0 μM)	65 to 85%	++ (activity was measured to be between 0.7 μM and 3.0 μM)		
CC(C)C(=O)N(C)[C@H]1CC2(CCN(C[C@H]3C[C@H]4CC[C@H]3C4)CC2)c2ccccc21 [compound 246]					> 70%	++ (activity was measured to be between 0.1 μM and 4.0 μM)	< 65%	++ (activity was measured to be between 0.7 μM and 3.0 μM)		
CC(=O)N1CCC2(CCN(C3CCN(c4cnc5ccccc5n4)CC3)CC2)c2ccccc21 [compound 456]	25 to 100%	++ (activity was measured to be between 2.0 μM and 5.0 μM)	> 100%	++ (activity was measured to be between 2.0 μM and 5.0 μM)						
CCOC(=O)N1CCC(N2CCC3(CC2)CN(C(=O)c2ccc(OC)cc2)c2ccc(F)cc23)CC1 [compound 41]					> 70%	+++ (activity was measured to be less than or equal to 0.1 μM)	> 85%	+++ (activity was measured to be less than or equal to 0.7 μM)		
CC(=O)N[C@H]1CC2(CCN(C3CCCCC3)CC2)c2ccccc21 [compound 196]					< 55%	+ (activity was measured to be greater than or equal to 4.0 μM)	65 to 85%	+++ (activity was measured to be less than or equal to 0.7 μM)		
COC(=O)N1CC2(CCN(C3CC4CCC(C3)N4C(=O)OCC(C)C)CC2)c2cc(F)ccc21 (stereo not shown) [compound 287]					< 55%	+ (activity was measured to be greater than or equal to 4.0 μM)	< 65%	++ (activity was measured to be between 0.7 μM and 3.0 μM)		
CCCOC(=O)N1C2CCC1CC(N1CCC3(CC1)CN(C(=O)OC)c1ccc(F)cc13)C2 (stereo not shown) [compound 386]					< 55%		< 65%		++ (activity was measured to be between 0.1 μM and 4.0 μM)	++ (activity was measured to be between 0.7 μM and 3.0 μM)
CCOC(=O)N1CCC(N2CCC3(CC2)CN(C(=O)C2CCCCC2)c2ccc(F)cc23)CC1 [compound 281]					55 to 70%	++ (activity was measured to be between 0.1 μM and 4.0 μM)	< 65%	++ (activity was measured to be between 0.7 μM and 3.0 μM)		
CCOC(=O)N1C2CCC1CC(CN1CCC3(CC1)CNc1ccc(F)cc13)C2 (stereo not shown) [compound 368]					< 55%	++ (activity was measured to be between 0.1 μM and 4.0 μM)	< 65%	+++ (activity was measured to be less than or equal to 0.7 μM)		
CC(=O)N[C@H]1CC2(CCN(CC3CCN(C(=O)OC(C)C)CC3)CC2)c2ccccc21 [compound 399]					< 55%		65 to 85%		++ (activity was measured to be between 0.1 μM and 4.0 μM)	++ (activity was measured to be between 0.7 μM and 3.0 μM)
